Legend:
Daphnia magna = test: 48-h static toxicity test on Daphnia magna; conditions: in vivo
Method: In contrast, pure nitrated phenolic compounds such as p-nitrofenol show toxicities up to 125 times higher, measured as mean lethal concentration (CL50) over Daphnia magna or as concentration without observed effect (CSEO by its Spanish acronym).
The study was carried out to determine composition toxicity on Daphnia magna in a 48-h static test. Test concentrations were determined through a range test. Concentrations used for the definitive test were 62.5, 125, 250, 500 and 1000 mg/L, administered to the system, Daphnia magna, in fresh water. Three copies of 10 organisms were used for each concentration test. Control containers were used, placing 10 daphnides in fresh water without the composition. Dissolved oxygen, temperature, conductivity and pH were assessed at the beginning of the test and after each dose. Observations for immobility were made daily in a test chamber. The test ended after 48±1 hour of exposure. The concentration without observed effect (CSEO) of the composition was 250 mg/L and CE50 (Mean Effective Concentration) was determined higher than 1000 mg/L.

pepper bell seedlings = test: Protection of pepper bell seedlings exposed to saline stress
Method: Protection offered by the composition in plants exposed to saline stress was observed through an assay with pepper bell seedlings, cultivar “npiter”. These seedlings were placed in germination plates with peat-moss as substrate and kept during a 40-day period and then transferred to 5-L pots. Adaptation period before treatment commencement consisted of daily irrigation during 10 days reaching saturation by a nutrient formulation based on 100-50-100 N-P-K at 1 mg/L concentrations. Used treatments in the assay were prepared in 100 L containers where NaCl was added until reaching a concentration of 25 mM/L, plus nutrients based on Hoagland formula (50% of its concentration). Irrigation frequency with this nutrient solution was every day, applying a 350 cm^3 volume per plant during the whole assay. Composition application was carried out once per week at a dose of […]. Based on a daily irrigation volume of 350 mL/plant, weekly application of the composition was 0.6 cm^3 per 7 days in 350 cm^3 of irrigation water per plant.

[1] = 25 mM NaCl irrigation, composition 0.6 mL per plant per day applied weekly

| Structure (SMILES) | toxicity relative to the composition, measured as mean lethal concentration (CL50) over Daphnia magna or as CSEO (Daphnia magna) | Foliar area (cm^2/plant) (pepper bell seedlings; [1]) | Leaves per plant (pepper bell seedlings; [1]) | reduction of number of leaves per plant (pepper bell seedlings; treatment with 25 mM NaCl) |
| --- | --- | --- | --- | --- |
| O=[N+]([O-])c1ccc(O)cc1 [p-nitrofenol] | up to 125 times higher |  |  |  |
| [Cl-].[Na+] [25 mM NaCl, NaCl] |  | 1050 cm^2/plant | 50 | about 27% |

Reference: patent US20170099837A1, “EXTRACTS OF AGRICULTURAL HUSKS USED TO MODIFY THE METABOLISM OF PLANTS” (priority 2014, published 2017)
